Where a name gives a salt, the structure may show the parent alone.
Molecular target: T1, hNET (Homo sapiens, UniProt P23975)
T1 construct: expressed in transfected cells
Assay: Norepinephrine (NE) uptake assay in MDCK-Net6 cells stably transfected with human hNET
Format: cell-based
Conditions: [3H]NE uptake; for inhibition at 1 µM: MDCK-Net6, 1 μM test compound; for EC50: test range 1 to 10,000 nM
Procedure, shortened: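 MDCK-Net6 cells preincubated 20 min at 37 °C with compound (1 to 10,000 nM) in HEPES buffer pH 7.4 with pargyline and ascorbate, then 5 min [3H]NE uptake (120 nM final). Lysed cells counted by scintillation; 1 μM desipramine defined minimum uptake; EC50 from logistic fit of pooled data.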

T1 sequence (P23975 whole entry): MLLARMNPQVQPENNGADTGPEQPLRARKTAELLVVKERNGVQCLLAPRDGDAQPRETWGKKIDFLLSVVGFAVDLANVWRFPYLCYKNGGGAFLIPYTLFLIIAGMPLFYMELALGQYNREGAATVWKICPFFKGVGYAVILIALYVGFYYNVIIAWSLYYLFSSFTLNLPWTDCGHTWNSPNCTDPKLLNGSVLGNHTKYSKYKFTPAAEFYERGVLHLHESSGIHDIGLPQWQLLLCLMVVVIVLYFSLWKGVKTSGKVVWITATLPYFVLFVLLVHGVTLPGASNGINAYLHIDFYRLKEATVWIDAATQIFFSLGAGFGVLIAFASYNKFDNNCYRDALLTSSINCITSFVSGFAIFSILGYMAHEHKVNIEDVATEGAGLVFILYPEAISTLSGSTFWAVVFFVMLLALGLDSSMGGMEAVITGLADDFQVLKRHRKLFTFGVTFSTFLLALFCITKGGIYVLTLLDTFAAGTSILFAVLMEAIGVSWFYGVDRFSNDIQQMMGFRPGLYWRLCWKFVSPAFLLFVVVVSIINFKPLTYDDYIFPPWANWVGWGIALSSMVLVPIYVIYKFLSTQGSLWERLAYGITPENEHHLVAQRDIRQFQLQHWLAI

| Structure (SMILES) | inhibition at 1 µM | EC50 | inhibition at 30 µM (MDCK-Net6, 30 μM test compound (stated in cell)) |
| --- | --- | --- | --- |
| CN(C)[C@@H]1CCN(CC(c2ccc(OCc3ccccc3)c(Cl)c2)C2(O)CCCCC2)C1 (stereo partly drawn) [Example 384, 1-{1-[4-(benzyloxy)-3-chlorophenyl]-2-[(3R)-3-(dimethylamino)pyrrolidin-1-yl]ethyl}cyclohexanol dihydrochloride] | 88% | 0.45 µM |  |
| CN[C@@H]1CCN(CC(c2ccc(OCc3ccccc3)c(Cl)c2)C2(O)CCCCC2)C1 (stereo partly drawn) [Example 385, 1-{1-[4-(benzyloxy)-3-chlorophenyl]-2-[(3R)-3-(methylamino)pyrrolidin-1-yl]ethyl}cyclohexanol dihydrochloride] | 65% | 0.27 µM |  |
| N[C@@H]1CCN(CC(c2cccc(OC(F)(F)F)c2)C2(O)CCCCC2)C1 (stereo partly drawn) [Example 386, 1-{2-[(3R)-3-aminopyrrolidin-1-yl]-1-[3-(trifluoromethoxy)phenyl]ethyl}cyclohexanol dihydrochloride] |  |  | 82% |
| N[C@H]1CCN(C[C@H](c2cccc(Cl)c2)C2(O)CCCCC2)C1 [Example 387, 1-[(1S)-2-[(3S)-3-aminopyrrolidin-1-yl]-1-(3-chlorophenyl)ethyl]cyclohexanol dihydrochloride] |  | 0.41 µM |  |
| N[C@H]1CCN(C[C@@H](c2cccc(Cl)c2)C2(O)CCCCC2)C1 [Example 388, 1-[(1 R)-2-[(3S)-3-aminopyrrolidin-1-yl]-1-(3-chlorophenyl)ethyl]cyclohexanol dihydrochloride] |  | 0.085 µM |  |
| C[C@@H]1CCC(O)([C@H](CN2CCC(N3CCCCC3)CC2)c2cccc(OC(F)(F)F)c2)C1 (stereo partly drawn) [Example 398, (3R)-1-{2-(1.4′-bipiperidin-1′-yl)-1-[3-(trifluoromethoxy)phenyl]ethyl}-3-methylcyclopentanol dihydrochloride] | 0% |  |  |
| NC1CCN(CC(c2ccc(OCc3ccccc3)c(Cl)c2)C2(O)CCCCC2)CC1 (stereo not shown) [Example 428, 1-{2-(4-aminopiperidin-1-yl)-1-[4-(benzyloxy)-3-chlorophenyl]ethyl}cyclohexanol dihydrochloride] | 92% | 0.11 µM |  |
| CN(C)C1CCN(CC(c2ccc(OCc3ccccc3)c(Cl)c2)C2(O)CCCCC2)CC1 (stereo not shown) [Example 429, 1-{1-[4-(benzyloxy)-3-chlorophenyl]-2-[4-(dimethylamino)piperidin-1-yl]ethyl}cyclohexanol] | 96% | 0.18 µM |  |
| NC1CCN(CC(c2ccc(OCc3ccc4ccccc4c3)c(Cl)c2)C2(O)CCCCC2)CC1 (stereo not shown) [Example 430, 1-{2-(4-aminopiperidin-1-yl)-1-[3-chloro-4-(2-naphthylmethoxy)phenyl]ethyl}cyclohexanol dihydrochloride] | 42% |  |  |
| CN(C)C1CCN(CC(c2ccc(OCc3ccc4ccccc4c3)c(Cl)c2)C2(O)CCCCC2)CC1 (stereo not shown) [Example 431, 1-{1-[3-chloro-4-(2-naphthylmethoxyl)phenyl]-2-[4-(dimethylamino)piperidin-1-yl]ethyl}cyclohexanol dihydrochloride] | 79% | 0.054 µM |  |
| COc1cc(C(CN2CCC(N)CC2)C2(O)CCCCC2)ccc1OCc1ccccc1 (stereo not shown) [Example 450, 1-{2-(4-aminopiperidin-1-yl)-1-[4-(benzyloxy)-3-methoxyphenyl]ethyl}cyclohexanol dihydrochloride] | 79% |  |  |
| COc1cc(C(CN2CCC(N(C)C)CC2)C2(O)CCCCC2)ccc1OCc1ccccc1 (stereo not shown) [Example 451, 1-{1-[4-(benzyloxy)-3-methoxyphenyl]-2-[4-(dimethylamino)piperidin-1-yl]ethyl}cyclohexanol dihydrochloride] | 79% |  |  |
| COc1ccc(C(CN2CCC(N3CCCCC3)CC2)C2(O)CCCCC2)cc1Cl (stereo not shown) [Example 458, 1-[2-(1,4′-bipiperidin-1′-yl)-1-(3-chloro-4-methoxyphenyl)ethyl]cyclohexanol dihydrochloride] | 79% |  |  |
| OC1(C(CN2CCC(N3CCCCC3)CC2)c2ccc(OCCc3ccccc3)cc2)CCCCC1 (stereo not shown) [Example 461, 1-{2-(1,4′-bipiperidin-1′-yl)-1-[4-(2-phenylethoxy)phenyl]ethyl}cyclohexanol dihydrochloride] | 17% |  |  |

Source: patent US7550485B2, “Substituted N-heterocycle derivatives and methods of their use” (Wyeth, priority 2003, dated 2009)
